Data published in patent US20250332266A1, “COMPOUNDS FOR THE DEGRADATION OF EGFR KINASE” (BeiGene Switzerland GmbH, priority 2022, published 2025).

What was measured:
[1] = molecular target: T1, EGFR L858R/T790M/C797S (H1975-clone #25) (Homo sapiens, UniProt P00533, C797S/L858R/T790M); assay: EGFR degradation, HTRF total-EGFR assay, H1975-clone #25 (LTC); format: cell-based; details: H1975-clone #25 L858R/T790M/C797S, 16 h treatment
T1 construct: expressed in transfected cells; host or cells: H1975 (clone #25), lentiviral transduction, endogenous EGFR knocked out
T1 sequence (P00533 25-1210 T790M/C797S/L858R): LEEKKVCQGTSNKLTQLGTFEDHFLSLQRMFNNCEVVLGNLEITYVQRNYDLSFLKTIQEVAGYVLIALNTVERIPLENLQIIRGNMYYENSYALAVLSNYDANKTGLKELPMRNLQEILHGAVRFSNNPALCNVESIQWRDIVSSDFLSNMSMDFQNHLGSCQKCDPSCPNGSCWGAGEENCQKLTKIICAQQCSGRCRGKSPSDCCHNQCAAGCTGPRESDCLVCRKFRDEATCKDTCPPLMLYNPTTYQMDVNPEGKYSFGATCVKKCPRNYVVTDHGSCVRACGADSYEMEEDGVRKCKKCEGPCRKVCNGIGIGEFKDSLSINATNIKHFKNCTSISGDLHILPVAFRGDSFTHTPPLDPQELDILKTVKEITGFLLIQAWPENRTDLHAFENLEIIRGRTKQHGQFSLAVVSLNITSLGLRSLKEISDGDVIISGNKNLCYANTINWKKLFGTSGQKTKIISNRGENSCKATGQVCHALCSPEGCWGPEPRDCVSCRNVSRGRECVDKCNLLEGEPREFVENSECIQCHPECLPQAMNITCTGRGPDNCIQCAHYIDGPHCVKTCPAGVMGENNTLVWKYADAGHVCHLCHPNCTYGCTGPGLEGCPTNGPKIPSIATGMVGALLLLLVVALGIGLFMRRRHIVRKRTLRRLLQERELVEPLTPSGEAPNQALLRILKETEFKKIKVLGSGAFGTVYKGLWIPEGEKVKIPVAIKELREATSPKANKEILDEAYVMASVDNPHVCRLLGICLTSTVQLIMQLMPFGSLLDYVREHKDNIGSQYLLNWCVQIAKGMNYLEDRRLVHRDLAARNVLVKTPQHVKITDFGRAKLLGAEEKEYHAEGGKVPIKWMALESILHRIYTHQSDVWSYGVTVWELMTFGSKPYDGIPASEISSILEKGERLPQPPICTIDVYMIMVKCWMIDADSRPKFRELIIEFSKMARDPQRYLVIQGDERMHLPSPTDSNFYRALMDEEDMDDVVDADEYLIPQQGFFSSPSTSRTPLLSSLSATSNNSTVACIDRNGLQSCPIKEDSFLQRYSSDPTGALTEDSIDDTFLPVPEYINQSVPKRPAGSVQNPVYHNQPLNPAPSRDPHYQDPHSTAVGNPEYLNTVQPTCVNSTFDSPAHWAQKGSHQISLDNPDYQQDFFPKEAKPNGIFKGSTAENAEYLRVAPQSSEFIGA
Description: (§1) H1975-clone #28 (Del19/T790M/C797S, or abbr: DTC), H1975-clone #23 (Del19/C797S, or abbr: DC), H1975-clone #25 (L858R/T790M/C797S, or abbr: LTC) and H1975-clone #8 (L858R/C797S, or abbr: LC). EGFR-Del19/T790M/C797S, EGFR-Del19/C797S, EGFR-L858R/T790M/C797S and EGFR-L858R/C797S were stably expressed in H1975 cell lines by lentivirus-mediated over-expression, respectively. The EGFR over-expressed cells then underwent knockout, in which the EGFR targeting sgRNA was designed to only target the endogenous EGFR copies and preserve the exogenous EGFR copies. Followed by the knockout, the edited H1975 cells were seeded in 96 well plates at the concentration of 1 cell/well, cultured for about 2 weeks to allow single clones formation. The formed clones were screened by DNA sequencing and whole exon sequencing analysis for the desired edition. H1975-clone #28, H1975-clone #23, H1975-clone #25 and H1975-clone #8 were finally confirmed as homozygous Del19/T790M/C797S EGFR, Del19/C797S EGFR, L858R/T790M/C797S EGFR and L858R/C797S EGFR clones, respectively.
(§2) H1975-#25, H1975-#28, H1975-#23 and H1975-#8 cells are treated with compounds diluted in 0.2% DMSO cell culture medium on day 2, incubate for 16 h, 37° C., 5% CO2. The final concentration of compounds in all assay is start with 10 μM, 5-fold dilution, total 8 doses were included.
(§3) Total-EGFR cellular kit(64NG1PEH) were used for evaluating EGFR degradation.
(§4) After 16 h treatment, add HTRF lysis buffer to each well; seal the plate and incubate 1 hour at room temperature on a plate shaker; Once the cells are lysed, 16 μL of cell lysate are transferred to a PE 384-well HTRF detection plate; 4 μL of pre-mixed HTRF antibodies are added to each well; cover the plate with a plate sealer, spin 1000 rpm for 1 min, incubate overnight at room temperature; read on BMG PheraStar with HTRF protocol (337 nm-665 nm-620 nm).
(§5) The inhibition (degradation) percentage of the compound was calculated by the following equation:
(§6) Inhibition percentage of Compound=100−100×(Signal−low control)/(High control−low control), wherein signal=each test compound group
(§7) High control=Cell group with added DMSO and without compound, indicating microplate readings without EGFR degradation.
(§8) Imax (Dmax) is the maximum percentage of inhibition (degradation).
(§9) The IC50 (DC50) value of a compound can be obtained by fitting the following equation
(§10) Wherein, X and Y are known values, and IC50, Hillslope, Top and Bottom are the parameters obtained by fitting with software. Y is the inhibition percentage (calculated from the equation), X is the concentration of the compound; IC50 is the concentration of the compound when the 50% inhibition is reached. The smaller the IC50 value is, the stronger the inhibitory ability of the compound is. Vice versa, the higher the IC50 value is, the weaker the ability the inhibitory ability of the compound is; Hillslope represents the slope of the fitted curve, generally around 1*; Bottom represents the minimum value of the curve obtained by data fitting, which is generally 0%±20%; Top represents the maximum value of the curve obtained by data fitting, which is generally 100%±20%. The experimental data were fitted by calculating and analyzing with Dotmatics data analysis software.

[2] = molecular target: EGFR Del19/T790M/C797S (H1975-clone #28) (Homo sapiens, UniProt P00533, T790M/C797S, form not given); assay: EGFR degradation, HTRF total-EGFR assay, H1975-clone #28 (DTC); format: cell-based; details: H1975-clone #28 Del19/T790M/C797S, 16 h treatment
EGFR Del19/T790M/C797S (H1975-clone #28), sequence (P00533 with tags, fused parts or gaps DEL746-750/T790M/C797S, form open): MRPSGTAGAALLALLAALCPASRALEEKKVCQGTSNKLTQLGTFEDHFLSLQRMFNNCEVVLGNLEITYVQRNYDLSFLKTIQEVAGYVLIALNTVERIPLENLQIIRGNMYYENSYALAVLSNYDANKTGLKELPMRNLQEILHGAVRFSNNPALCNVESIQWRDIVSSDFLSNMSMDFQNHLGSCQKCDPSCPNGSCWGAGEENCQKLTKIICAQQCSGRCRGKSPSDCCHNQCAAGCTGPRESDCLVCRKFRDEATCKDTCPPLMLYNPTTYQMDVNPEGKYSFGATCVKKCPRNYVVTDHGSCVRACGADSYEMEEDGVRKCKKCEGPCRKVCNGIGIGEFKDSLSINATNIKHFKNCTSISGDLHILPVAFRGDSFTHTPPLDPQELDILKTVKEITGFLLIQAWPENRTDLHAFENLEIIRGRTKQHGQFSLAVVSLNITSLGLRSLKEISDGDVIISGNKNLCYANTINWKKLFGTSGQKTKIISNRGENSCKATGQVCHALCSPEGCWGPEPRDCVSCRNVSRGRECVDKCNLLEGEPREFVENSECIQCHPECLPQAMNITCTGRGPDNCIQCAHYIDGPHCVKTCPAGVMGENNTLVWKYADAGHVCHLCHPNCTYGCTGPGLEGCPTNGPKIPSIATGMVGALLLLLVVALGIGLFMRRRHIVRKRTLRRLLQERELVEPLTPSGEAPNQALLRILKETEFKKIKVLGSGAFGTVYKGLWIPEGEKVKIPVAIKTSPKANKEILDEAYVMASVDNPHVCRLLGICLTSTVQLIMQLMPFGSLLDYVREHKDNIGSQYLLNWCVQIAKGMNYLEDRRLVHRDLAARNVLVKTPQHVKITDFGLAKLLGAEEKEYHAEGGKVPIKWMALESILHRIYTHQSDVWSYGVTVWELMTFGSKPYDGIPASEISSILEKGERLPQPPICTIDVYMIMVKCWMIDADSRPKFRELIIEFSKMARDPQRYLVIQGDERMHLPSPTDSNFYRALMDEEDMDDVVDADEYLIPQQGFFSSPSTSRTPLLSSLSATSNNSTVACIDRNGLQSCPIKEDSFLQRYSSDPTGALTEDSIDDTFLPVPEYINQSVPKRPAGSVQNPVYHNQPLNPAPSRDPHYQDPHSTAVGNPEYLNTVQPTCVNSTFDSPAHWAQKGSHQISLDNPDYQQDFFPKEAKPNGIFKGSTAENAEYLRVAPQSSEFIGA
Description: as §1, §2, §3, §4, §5, §6, §7, §8, §9, §10

Row | SMILES | Degradation H1975 # 25-LTC [1] | Degradation H1975 # 28 DTC [2]
1 | Cc1cc2cc(n1)-c1cnn(C)c1OC[C@H]1C[C@@H](CN3/C(=N/C2=O)Nc2ccc(N4CCC(N5CCN(c6cc(F)c([C@H]7CCC(=O)NC7=O)c(F)c6)CC5)CC4)cc23)C1 [Example 17, (R)-3-(4-(4-(1-((7^1s,7^3s,E)-1^1,2^6-dimethyl-3-oxo-5^2,5^3-dihydro-1^1H,5^1H-9-oxa-4-aza-5(2,1)-benzo[d]imidazola-2(2,4)-pyridina-1(4,5)-pyrazola-7(1,3)-cyclobutanacyclononaphane-5^6-yl)piperidin-4-yl)piperazin-1-yl)-2,6-difluorophenyl)piperidine-2,6-dione] | 88.3 | 86.2
2 | Cc1cc2cc(n1)-c1cnn(C)c1OC[C@H]1C[C@@H](CN3/C(=N/C2=O)Nc2ccc(N4CCN(CCc5cc(F)c([C@H]6CCC(=O)NC6=O)c(F)c5)CC4=O)cc23)C1 [Example 9, (R)-3-(4-(2-(4-((7^1s,7^3s,E)-1^1,2^6-dimethyl-3-oxo-5^2,5^3-dihydro-1^1H,5^1H-9-oxa-4-aza-5(2,1)-benzo[d]imidazola-2(2,4)-pyridina-1(4,5)-pyrazola-7(1,3)-cyclobutanacyclononaphane-5^6-yl)-3-oxopiperazin-1-yl)ethyl)-2,6-difluorophenyl)piperidine-2,6-dione] | 88.5 | 90.9
3 | Cc1cc2cc(n1)-c1cnn(C)c1OC[C@H]1C[C@@H](CN3/C(=N/C2=O)Nc2ccc(CN4CCN(C(=O)C5CN(c6cc(F)c([C@H]7CCC(=O)NC7=O)c(F)c6)CC5(C)C)CC4)cc23)C1 (stereo partly drawn) [Example 4, (R)-3-(4-((S)-4-(4-(((7^1s,7^3R,E)-1^1,2^6-dimethyl-3-oxo-5^2,5^3-dihydro-1^1H,5^1H-9-oxa-4-aza-5(2,1)-benzo[d]imidazola-2(2,4)-pyridina-1(4,5)-pyrazola-7(1,3)-cyclobutanacyclononaphane-5^6-yl)methyl)piperazine-1-carbonyl)-3,3-dimethylpyrrolidin-1-yl)-2,6-difluorophenyl)piperidine-2,6-dione] | 86.6 | 84.6
4 | Cc1cc2cc(n1)-c1cnn(C)c1OC[C@H]1C[C@@H](CN3/C(=N/C2=O)Nc2ccc(N4CC[C@H](N5CCN(c6ccc(C7CCC(=O)NC7=O)nc6C)CC5)C(F)(F)C4)cc23)C1 (stereo partly drawn) [Example 122, 3-(5-(4-((S)-1-((7^1s,7^3R,E)-1^1,2^6-dimethyl-3-oxo-5^2,5^3-dihydro-1^1H,5^1H-9-oxa-4-aza-5(2,1)-benzo[d]imidazola-2(2,4)-pyridina-1(4,5)-pyrazola-7(1,3)-cyclobutanacyclononaphane-5^6-yl)-3,3-difluoropiperidin-4-yl)piperazin-1-yl)-6-methylpyridin-2-yl)piperidine-2,6-dione] | 90.9 | 84.1
5 | Cc1cc2cc(n1)-c1cnn(C)c1OC[C@H]1C[C@@H](CN3/C(=N/C2=O)Nc2ccc(N4CCN(C5CN(C6CCN(c7ccc(C8CCC(=O)NC8=O)nc7C)CC6)C5)CC4)cc23)C1 (some centres unmarked) [Example 121, 3-(5-(4-(3-(4-((7^1s,7^3s,E)-1^1,2^6-dimethyl-3-oxo-5^2,5^3-dihydro-1^1H,5^1H-9-oxa-4-aza-5(2,1)-benzo[d]imidazola-2(2,4)-pyridina-1(4,5)-pyrazola-7(1,3)-cyclobutanacyclononaphane-5^6-yl)piperazin-1-yl)azetidin-1-yl)piperidin-1-yl)-6-methylpyridin-2-yl)piperidine-2,6-dione] | 89.5 | 83.2
6 | Cc1cc2cc(n1)-c1cnn(C)c1OC[C@H]1C[C@@H](CN3/C(=N/C2=O)Nc2ccc(CN4CCN(C(=O)C5CN(c6cc(F)c([C@H]7CCC(=O)NC7=O)c(F)c6)C5)CC4)cc23)C1 [Example 3, (R)-3-(4-(3-(4-(((7^1s,7^3s,E)-1^1,2^6-dimethyl-3-oxo-5^2,5^3-dihydro-1^1H,5^1H-9-oxa-4-aza-5(2,1)-benzo[d]imidazola-2(2,4)-pyridina-1(4,5)-pyrazola-7(1,3)-cyclobutanacyclononaphane-5^6-yl)methyl)piperazine-1-carbonyl)azetidin-1-yl)-2,6-difluorophenyl)piperidine-2,6-dione] | 85.6 | 86.7
7 | Cc1cc2cc(n1)-c1cnn(C)c1OC[C@H]1C[C@@H](CN3/C(=N/C2=O)Nc2ccc(N4CCC(N5CCN(c6cnc(C7CCC(=O)NC7=O)cc6C)C[C@@H]5C)CC4)cc23)C1 (stereo partly drawn) [Example 110, 3-(5-((S)-4-(1-((7^1s,7^3R,E)-1^1,2^6-dimethyl-3-oxo-5^2,5^3-dihydro-1^1H,5^1H-9-oxa-4-aza-5(2,1)-benzo[d]imidazola-2(2,4)-pyridina-1(4,5)-pyrazola-7(1,3)-cyclobutanacyclononaphane-5^6-yl)piperidin-4-yl)-3-methylpiperazin-1-yl)-4-methylpyridin-2-yl)piperidine-2,6-dione] | 90.3 | 82.2
8 | Cc1cc2cc(n1)-c1cnn(C)c1OC[C@H]1C[C@@H](CN3/C(=N/C2=O)Nc2ccc(N(C)C4CC5(C4)CN(C4CCN(c6cc(F)c(C7CCC(=O)NC7=O)c(F)c6)CC4)C5)cc23)C1 (stereo partly drawn) [Example 136, (R)-3-(4-(4-(6-(((7^1s,7^3s,E)-1^1,2^6-dimethyl-3-oxo-5^2,5^3-dihydro-1^1H,5^1H-9-oxa-4-aza-5(2,1)-benzo[d]imidazola-2(2,4)-pyridina-1(4,5)-pyrazola-7(1,3)-cyclobutanacyclononaphane-5^6-yl)(methyl)amino)-2-azaspiro[3.3]heptan-2-yl)piperidin-1-yl)-2,6-difluorophenyl)piperidine-2,6-dione] | 87.0 | 85.0
9 | Cc1cc2cc(n1)-c1cnn(C)c1OC[C@H]1C[C@@H](CN3/C(=N/C2=O)Nc2ccc(N4CCN(C5CCN(c6ccc(C7CCC(=O)NC7=O)nc6C)CC5)C[C@H]4C)cc23)C1 (stereo partly drawn) [Example 34, 3-(5-(4-((R)-4-((7^1s,7^3S,E)-1^1,2^6-dimethyl-3-oxo-5^2,5^3-dihydro-1^1H,5^1H-9-oxa-4-aza-5(2,1)-benzo[d]imidazola-2(2,4)-pyridina-1(4,5)-pyrazola-7(1,3)-cyclobutanacyclononaphane-5^6-yl)-3-methylpiperazin-1-yl)piperidin-1-yl)-6-methylpyridin-2-yl)piperidine-2,6-dione] | 93.3 | 89.6
10 | Cc1cc2cc(n1)-c1cnn(C)c1OC[C@H]1C[C@@H](CN3/C(=N/C2=O)Nc2ccc(N4CCN([C@H]5CCN(c6ccc(C7CCC(=O)NC7=O)nc6C)C[C@H]5F)CC4)cc23)C1 (stereo partly drawn) [Example 19, 3-(5-((3R,4S)-4-(4-((7^1s,7^3R,E)-1^1,2^6-dimethyl-3-oxo-5^2,5^3-dihydro-1^1H,5^1H-9-oxa-4-aza-5(2,1)-benzo[d]imidazola-2(2,4)-pyridina-1(4,5)-pyrazola-7(1,3)-cyclobutanacyclononaphane-5^6-yl)piperazin-1-yl)-3-fluoropiperidin-1-yl)-6-methylpyridin-2-yl)piperidine-2,6-dione] | 92.2 | 92.8
